{"source": "patent EP1792623B1", "about": "“Use of extracts and constituents of leontopodium as enhancers of cholinergic function” (Leopold-Franzens-Universität Innsbruck, priority 2005, dated 2007)", "key": {"acetylcholinesterase": {"tested_on": "acetylcholinesterase", "assay_type": "biochemical", "conditions": "100 µM, after 60 min, in comparison to medium control, n=4", "description": "Experiments are carried out applying Ellman's method in a 96-well microplate assay described by Ingkaninan et al, Journal of Chromatography A 827 (2000) p. 6173 and Rhee et al, Journal of Chromatography A 915 (2001) p. 217-223. In addition to buffer A described above, a buffer containing 0.1 M NaCl and 0.02 M MgClx2.6 H2O in buffer A is used for preparing a 3 mM solution of DTNB. For the microplate assay the substrate ATCI is dissolved 15 mM in water (HPLC grade). The enzyme stock solution is diluted with buffer A to get 0.22 U/ml. In the 96-well plates, 25 µl of 15 mM ATCl, 125 µl of 3 mM DTNB, 50 µl of buffer A, and 25 µl of sample (10 mM in MeOH, respectively DMSO (dimethylsulfoxide), diluted ten times with buffer A) are added. […] […] The absorbance of the product (2-nitrobenzoate-5-mercapto thioline) is measured at 405 nm with a Chameleon 5025 (Hidex, Finland) microplate reader 0, 15, 30, 45 and 60 minutes after adding 25 µl of 0.22 U/ml acetylcholinesterase-solution to the reaction mixture. All experiments are performed 4 times (n=4) and the data are statistically processed using the SPSS 11.5 program package. Percentage of inhibition is calculated by comparing the rates for the sample to the blank (10% MeOH, resp. DMSO, in buffer)."}, "[1]": {"tested_on": "C56BL/6N female, 3-month mice", "assay": "Object recognition task (scopolamine-induced learning deficit)", "assay_type": "in vivo", "description": "(§1) Animals: C56BL/6N female, 3-month mice, weighing 20 - 27 g, were used in the present study. The animals were housed in groups of six to ten in cages (40 (L) x 25 (W) x 15 (H) cm) placed in a room at a constant temperature (22±1 °C), 12-light/ 12-dark cycle (07:00-19:00 h), with food and water ad libitum. Experiments were conducted between 09:00 and 16:00h.\n(§2) Surgery: Mice were anaesthetized with Pentobarbital sodium (60 mg/kg, i.p.) and placed in a stereotaxic frame. A guide cannula (gauge 25, o.d. 0.52 mm, i.d, 0.26 mm and 7 mm long) was stereotaxically implanted through a hole on the skull into the brain area 0.5 mm higher than the third cerebral ventricle (-0.1 mm posterior, 0.8 mm lateral to bregma, -2.2 mm ventral to the dura) (Franklin KBJ, Paxinos G (1997) The mouse brain in stereotaxic coordinates. Academic Press San Diego). Guide cannula was secured to the skull using two small screws and dental cement. The microinjector (Hamilton gauge 32, o.d. 0.24 mm and i.d. 0.11 mm, 7.5 mm long) protruded 0.5 mm from the tip of the guide cannula to reach the cerebral ventricle. Mice recovered for 5 days before any experimentation was done.\n(§3) Drugs: Scopolamine hydrobromide (Sigma, St. Louis, MO, U.S.A.) was dissolved in saline. Isocomene was dissolved in vehicle solution (3 parts DMSO : 7 parts sterile water). The animals were randomly divided into experimental groups and administered a cerebral ventricle injection of saline, scopolamine, isocomene or scopolamine and isocomene in a volume µl during 1 min. The injector was left in place an extra 1 min for drug diffusion after injection. These substances and vehicle were injected 15 min prior to the test.\nExperimental design and drug application: Animals were randomly divided into […] experimental groups (6-9 mice per group) as follows: vehicle; scopolamine hybrobromide 20 µg (50 nmol) in 1µl ICV, isocomene 8.16 µg (40 nmol) in 2µl ICV, and scopolamine hybrobromide 20 µg plus isocomene 2 µg ICV. All substances were injected 15 min before the test (T-maze and open field) or before the training trial T1 (object recognition test) through the 7.5 mm long injector connected with i.d. 0.28 mm polyethylene tubing to 5 µl Hamilton syringe.\nApparatus: The test apparatus consisted of a box made of Plexiglas (40 (L) x 25 (W) x 15 (H) cm), which was illuminated by a lamp above the box. In the different parts of the apparatus, the light intensity was equal at 100 lux. The objects to be discriminated were made of plastic or metal, were in the different shapes: cubes and cylinders 1.5-cm high in white or green colour; they could not be displaced by mice. In addition, these objects had no genuine significance for mice and had never been associated with a reinforcement.\nProcedure: The object recognition test was performed as described elsewhere (Ennaceur A, Delacour J (1988) A new one-trial test for neurobiological studies of memory in rats. 1: Behavioural data. Behav Brain Res. 31: 47-59). On the day before testing, the animals were allowed to explore the apparatus for 10 min (without objects), while on the testing day, a session of two 10-min trials was given. During the training trial (sample trial) (T1), two identical objects were placed opposite sides 8 cm from the short walls. A mouse was placed in the middle of apparatus and was left to explore these two identical objects in 10 min. After T1, the mouse was put back in its home cage and a 24-hour inter-trial interval was given. […]"}, "[2]": {"tested_on": "C56BL/6N female, 3-month mice", "assay": "T-maze continuous alternation task", "assay_type": "in vivo", "description": "as §1, §2, §3\nExperimental design and drug application: Animals were randomly divided into three experimental groups (6-9 mice per group) as follows: vehicle; scopolamine hybrobromide 20 µg (50 nmol) in 1µl ICV, isocomene 8.16 µg (40 nmol) in 2µl ICV, and scopolamine hybrobromide 20 µg plus isocomene 2 µg ICV. […]"}, "[3]": {"conditions": "scopolamine 20 µg ICV alone, T2"}, "[4]": {"conditions": "isocomene 8.16 µg ICV in mice given scopolamine 20 µg ICV"}}, "note": "Where a name gives a salt, the structure may show the parent alone."}
{"compound": "1-acetyloxy-3-angeloyloxy-(4E,6E)-tetradeca-4,6-dien-8,10,12-triyne and the 4E,6Z isomer", "values": [{"measurement": "inhibition (%)", "setting": "acetylcholinesterase", "value": 16.5, "unit": "%"}]}
{"compound": "15-acetoxy-modhephene", "values": [{"measurement": "inhibition (%)", "setting": "acetylcholinesterase", "value": 56.4, "unit": "%"}]}
{"compound": "C=C(CO)[C@H]1Oc2ccc(C(C)=O)cc2[C@H]1O[C@@H]1O[C@H](CO)[C@@H](O)[C@H](O)[C@H]1O", "note": "(relative stereo) [1-{(2R*,3R*)-2-[1-(hydroxymethyl)vinyl]-3-(β-D-gluco-pyranosyloxy)-2,3-dihydro-1-benzofuran-5-yl}-ethanone]", "values": [{"measurement": "inhibition (%)", "setting": "acetylcholinesterase", "value": -0.6, "unit": "%"}]}
{"compound": "CC(=O)OCC1=C[C@]2(C)CCC3[C@H](C)CCC32C1C", "note": "(relative stereo) [[(1R*,3aS,6R)-1,3a,6-trimethyl-1,3a,4,5,5a,6,7,8-octahydrocyclo-penta[c]pentalen-2-yl]methylacetat]", "values": [{"measurement": "inhibition (%)", "setting": "acetylcholinesterase", "value": 61.8, "unit": "%"}]}
{"compound": "C=C(C)C1COc2cc3oc(=O)ccc3c(O)c2O1", "note": "(centres unmarked) [5-hydroxy-obliquin]", "values": [{"measurement": "inhibition (%)", "setting": "acetylcholinesterase", "value": 1.9, "unit": "%"}]}
{"compound": "C=C(C)C1COc2cc3oc(=O)ccc3c(OC)c2O1", "note": "(centres unmarked) [5-methoxy-obliquin]", "values": [{"measurement": "inhibition (%)", "setting": "acetylcholinesterase", "value": 3.4, "unit": "%"}]}
{"compound": "CN1[C@@H]2C[C@@H](OC(=O)[C@H](CO)c3ccccc3)C[C@H]1[C@@H]1O[C@@H]12", "note": "[Scopolamine, Scopolamine hydrobromide]", "values": [{"measurement": "discrimination index", "setting": "[1]; [3]", "value": "zero"}, {"measurement": "exploration ratio", "setting": "[1]; [3]", "value": "~1.0"}, {"measurement": "exploration time", "setting": "[1]; scopolamine 20 µg ICV alone, vs vehicle-treated control mice", "value": "no significant difference"}, {"measurement": "alternation rate", "setting": "[2]; scopolamine 20 µg ICV alone", "value": "pronounced decrease in alternation rate"}]}
{"compound": "C/C=C(/C)C(=O)OC[C@H]1[C@@H](Cc2cc(OC)c(OC)c(OC)c2)CO[C@@H]1c1cc(OC)c(OC)c(OC)c1", "note": "[[(2S,3R,4R)-4-(3,4,5-trimethoxy-benzyl)-2-(3,4,5-trimethoxy-phenyl)tetrahydrofuran-3-yl]methyl-(2Z)-2-methylbut-2-en-oate]", "values": [{"measurement": "inhibition (%)", "setting": "acetylcholinesterase", "value": -6.4, "unit": "%"}]}
{"compound": "C/C=C(/C)C(=O)OC[C@H]1[C@@H](Cc2ccc(OC)c(OC)c2)CO[C@@H]1c1cc(OC)c(OC)c(OC)c1", "note": "[[(2S,3R,4R)-4-(3,4-dimethoxy-benzyl)-2-(3,4,5-trimethoxy-phenyl)tetrahydrofuran-3-yl]methyl-(2Z)-2-methylbut-2-en-oate]", "values": [{"measurement": "inhibition (%)", "setting": "acetylcholinesterase", "value": 5.0, "unit": "%"}]}
{"compound": "C/C=C(/C)C(=O)OC[C@H]1[C@@H](Cc2ccc(OC)c(OC)c2)CO[C@@H]1c1ccc(OC)c(OC)c1", "note": "[[(2S,3R,4R)-4-(3,4-dimethoxy-benzyl)-2-(3,4-dimethoxy-phenyl)tetrahydrofuran-3-yl]methyl-(2Z)-2-methylbut-2-en-oate]", "values": [{"measurement": "inhibition (%)", "setting": "acetylcholinesterase", "value": 17.5, "unit": "%"}]}
{"compound": "C=C(C)C1COc2cc3oc(=O)ccc3cc2O1", "note": "(centres unmarked) [obliquine]", "values": [{"measurement": "inhibition (%)", "setting": "acetylcholinesterase", "value": 18.1, "unit": "%"}]}
{"compound": "C[C@@H]1CC[C@@H]2C(C)(C)C[C@]3(C)CC=C[C@]123", "note": "[silphinene]", "values": [{"measurement": "inhibition (%)", "setting": "acetylcholinesterase", "value": 3.2, "unit": "%"}]}
{"compound": "CC1=C[C@@H]2[C@@H](CC1)[C@@](C)(O)CC[C@H]2C(C)C", "note": "[t-Cadinol]", "values": [{"measurement": "inhibition (%)", "setting": "acetylcholinesterase", "value": 10.3, "unit": "%"}]}
{"compound": "(4a,7b,8a,9b,15a)-7,9-dihydroxy-15-{[(2Z)-2-methylbut-2-enoyl]oxy} kaur-16-en-19-oate", "values": [{"measurement": "inhibition (%)", "setting": "acetylcholinesterase", "value": 53.7, "unit": "%"}]}
{"compound": "bisabolan A", "values": [{"measurement": "inhibition (%)", "setting": "acetylcholinesterase", "value": 23.3, "unit": "%"}]}
{"compound": "bisabolan E", "values": [{"measurement": "inhibition (%)", "setting": "acetylcholinesterase", "value": 56.9, "unit": "%"}]}
{"compound": "ent-kaur-16-enic-19-acid", "values": [{"measurement": "inhibition (%)", "setting": "acetylcholinesterase", "value": 35.6, "unit": "%"}]}
{"compound": "isocomene", "values": [{"measurement": "discrimination index", "setting": "[1]; [4]", "value": "potently increased"}, {"measurement": "exploration ratio", "setting": "[1]; [4]", "value": "potently increased"}, {"measurement": "inhibition (%)", "setting": "acetylcholinesterase", "value": 39.6, "unit": "%"}, {"measurement": "alternation rate", "setting": "[2]; 8.16 µg isocomene ICV alone, mean ± SEM, control mice 52 ± 2.46 %", "value": "69.96 ± 2.42", "unit": "%"}, {"measurement": "alternation rate", "setting": "[2]; [4]", "value": "abolished this effect of scopolamine"}]}
{"compound": "β -isocomene", "values": [{"measurement": "inhibition (%)", "setting": "acetylcholinesterase", "value": 40.8, "unit": "%"}]}
